US20040081972A1, “Novel physiologically active peptide and use thereof” (priority 2000, published 2004)
[ ]: non-standard residue; d: D form. LYB = not defined here

Experiments:
Assay type in all cases: cell-based
[1] = tested on: thymus, abdominal muscle, diaphragm, kidney, crystalline lens, pancreas, fat tissue, liver, blood vessel, ovary, womb and adrenal gland; test: Intracellular calcium (aequorin luminescence) in organs other than the spleen and skull of apoaequorin transgenic mouse
Description: In order to measure changes in the concentration of an intracellular signal transduction substance in cells constituting the organs, a transgenic mouse prepared by integrated an apoaequorin gene expression vector into a chromosome was used. […] The transgenic mouse was prepared and reared as an SPF animal in a clean room, and was not contaminated with pathogens including mouse hepatitis virus, Sendai virus, mycoplasma and Tyzzer bacterium.

[2] = tested on: spleen of an apoaequorin transgenic mouse; test: Intracellular calcium (aequorin luminescence) in spleen pieces of apoaequorin transgenic mouse; conditions: for physiological activity (the activity found in Peptide 1 or Peptide 3): purified samples, method of Example 3
Description: (§1) In order to evaluate physiological activities of the peptides prepared in Example 1, the prepared peptides were allowed to act upon organs excised from the living body, and changes in the concentration of an intracellular signal transduction substance in cells constituting the organs were measured.
(§2) In order to measure changes in the concentration of an intracellular signal transduction substance in cells constituting the organs, a transgenic mouse prepared by integrated an apoaequorin gene expression vector into a chromosome was used. Specifically, a female mouse derived from the transgenic mouse disclosed in Reference Example 4 as an individual number 98075-04-6 was used in the test. The transgenic mouse was prepared and reared as an SPF animal in a clean room, and was not contaminated with pathogens including mouse hepatitis virus, Sendai virus, mycoplasma and Tyzzer bacterium.
(§3) Aequorin is a bioluminescent protein complex which is present in the umbrella region of luminescent Aequorea victoria. Aequorin is constituted from its protein moiety apoaequorin, its luminescence substrate coelent razin and molecular oxygen, and emits light by its binding with calcium ion. Since expression of the apoaequorin protein has been confirmed in at least thymus, spleen, abdominal muscle, diaphragm, kidney, crystalline lens, pancreas, fat tissue, liver, skull, blood vessel, ovary, womb and adrenal gland of the transgenic mouse used in the test, it was able to monitor changes in the intracellular calcium ion concentration in these organs with a high sensitivity.
(§4) Organs were prepared from offsprings borne from the female of individual number 98075-04-6 to examine the activities of the peptides produced in Example 1. After the offsprings were killed, the thymus, spleen, abdominal muscle, diaphragm, kidney, crystalline lens, pancreas, fat tissue, liver, skull, blood vessel, ovary, womb and adrenal gland were excised. Each of the excised organs was cut into small cubes of about 1 to 2 mm square in PBS containing 10 units/ml of heparin sodium and thoroughly washed by changing the solution. Next, three pieces of each of the organ samples thus prepared were put into a 5 ml capacity tube (Rohren-Tubes; No. 55.476, manufactured by Sarstedt) which had been charged with RPMI 1640 medium containing 200 μl of 10 μmol/l coelenterazine (manufactured by Molecular Probes), and cultured at 37° C. for 5 hours. Five hours after, various substances shown below dissolved in RPMI 1640 medium were added at 200 μl, and the luminescence was measured just after the addition at 1 second intervals using a luminometer AutoLumat LB953 (manufactured by BERTHOLD).
Organs were prepared from offsprings borne from the female of individual number 98075-04-6 to examine the activities of the peptides produced in Example 1. After the offsprings were killed, the spleen was excised. The excised spleen was cut into small cubes of about 1 to 2 mm square in PBS containing 10 units/ml of heparin sodium and thoroughly washed by changing the solution. Next, three pieces of the prepared spleen sample were put into a 5 ml capacity tube (Rohren-Tubes; No. 55.476, manufactured by Sarstedt) which had been charged with RPMI 1640 medium containing 200 μl of 10 μmol/l coelenterazine (manufactured by Molecular Probes), and cultured at 37° C. for 5 hours. Five hours after, various substances shown below dissolved in RPMI 1640 medium were added at 200 μl, and the luminescence was measured just after the addition at 1 second intervals using a luminometer AutoLumat LB953 (manufactured by BERTHOLD).
RPMI 1640, a peptide prepared in Example 1 (final concentration: 10 nmol/l), a peptide prepared in Example 1 (final concentration: 100 nmol/l), a peptide prepared in Example 1 (final concentration: 1 μmol/l), a peptide prepared in Example 1 (final concentration; 10 μmol/l), ATP (final concentration: 100 μmol/l), A23187 (final concentration: 1 μmol/l) and Triton X-100 (final concentration: 2%) were added in order. […]

[3] = tested on: thymus of an apoaequorin transgenic mouse; test: Intracellular calcium (aequorin luminescence) in thymus pieces of apoaequorin transgenic mouse
Description: as §1
as §2, with “The transgenic mouse was prepared and reared as an SPF animal in a clean room, and was not contaminated with pathogens including mouse hepatitis virus, Sendai virus, mycoplasma and Tyzzer bacterium.” left out
Aequorin is a bioluminescent protein complex which is present in the umbrella region of luminescent Aequorea victoria. Aequorin is constituted from its protein moiety apoaequorin, its luminescence substrate coelent razin and molecular oxygen, and emits light by its binding with calcium ion. […]
Organs were prepared from offsprings borne from the female of individual number 98075-04-6 to examine the activities of the peptides produced in Example 1. […] Five hours after, various substances shown below dissolved in RPMI 1640 medium were added at 200 μl, and the luminescence was measured just after the addition at 1 second intervals using a luminometer AutoLumat LB953 (manufactured by BERTHOLD).

[4] = tested on: blood vessel of an apoaequorin transgenic mouse; test: Intracellular calcium (aequorin luminescence) in blood vessel pieces of apoaequorin transgenic mouse
Description: as §1, §2, §3, §4

[5] = tested on: skull (cranial bone) of an apoaequorin transgenic mouse; test: Intracellular calcium (aequorin luminescence) in skull (cranial bone) pieces of apoaequorin transgenic mouse; conditions: final concentration 10 μmol/l
Description: as §1, §2, §3, §4

[6] = tested on: spleen of an apoaequorin transgenic mouse; test: Intracellular calcium (aequorin luminescence) in spleen pieces of apoaequorin transgenic mouse
[7] = 10 nmol/l, 100 nmol/l, 1 μmol/l, 10 μmol/l added in order

With Nc1ncnc2c1ncn2[C@@H]1O[C@H](COP(=O)(O)OP(=O)(O)OP(=O)(O)O)[C@@H](O)[C@H]1O [ATP] the “luminescence (intracellular calcium increase)” value ([1]; final concentration 100 μmol/l) was “luminescence was observed”, the “luminescence (intracellular calcium increase)” value ([2]; final concentration 100 μmol/l) was “Strong luminescence” and the “luminescence (intracellular calcium increase)” value ([3]; final concentration 100 μmol/l) was “Strong luminescence”. For the same molecule, the “luminescence (intracellular calcium increase)” value ([4]; final concentration 100 μmol/l) was “Strong luminescence”.

With CNc1ccc2oc(C[C@H]3O[C@@]4(CC[C@H]3C)O[C@H]([C@H](C)C(=O)c3ccc[nH]3)[C@H](C)C[C@H]4C)nc2c1C(=O)O [Peptide A23187, A23187] the “luminescence (intracellular calcium increase)” value ([1]; final concentration 1 μmol/l) was “luminescence was observed”.

C[N+](C)(C)CCOC(N)=O [carbachol] was tested, and the “luminescence (intracellular calcium increase)” value ([4]; final concentration 10 μmol/l) was “Strong luminescenc”.

For CC[C@H](C)[C@H](NC(=O)[C@H](CC(=O)O)NC(=O)[C@H](CC(C)C)NC(=O)[C@H](Cc1c[nH]cn1)NC(=O)[C@@H]1CSSC[C@H](N)C(=O)N[C@@H](CO)C(=O)N[C@H]2CSSC[C@H](NC(=O)[C@H](CCC(=O)O)NC(=O)[C@H](CCCCN)NC(=O)[C@H](CC(=O)O)NC(=O)[C@H](CCSC)NC(=O)[C@H](CC(C)C)NC(=O)[C@H](CO)NC(=O)[C@H](CO)NC2=O)C(=O)N[C@@H](C(C)C)C(=O)N[C@@H](Cc2ccc(O)cc2)C(=O)N[C@@H](Cc2ccccc2)C(=O)N1)C(=O)N[C@H](C(=O)N[C@@H](Cc1c[nH]c2ccccc12)C(=O)O)[C@@H](C)CC [endothelin], the “luminescence (intracellular calcium increase)” value ([4]; final concentration 10 nmol/l) was “Strong luminescence”.

CNC[C@H](O)c1cccc(O)c1 [phenylephrine] was tested, and the “luminescence (intracellular calcium increase)” value ([3]; final concentration 20 μmol/l) was “Strong luminescence” and the “luminescence (intracellular calcium increase)” value ([4]; final concentration 20 μmol/l) was “Strong luminescence”.

In the case of “H-Leu-Ile-Arg-Glu-Val-Ser-Ser-Gly-Ser-Glu-Glu-Thr-Phe-Ser-Tyr-Ser-Asp-Phe-Leu-Arg-Met-Met-Leu-NH2 (H-LIREVSSGSEETFSYSDFLRMML-NH2) [Peptide 2 short]”, the “final concentration from which concentration-dependent luminescence was observed” value (from here on “final concentration”) [2, 7] is reported as 1 µmol/L and the “activity maintained relative to the activity of Peptide 2” value ([2]; fraction of Peptide 2 activity) is reported as 1/10.

“H-Leu-Ser-Pro-His-Thr-Lys-Leu-Ser-Tyr-Arg-Glu-Glu-Val-Phe-Leu-Arg-Leu-Ser-Lys-Ser-Glu-Gly-Leu-Met-Glu-Ile-LYB-Leu-Met-Glu-Asp-Leu-Met-val-Phe-Ser-Arg-Thr-Gly-NH2 (H-LSPHTKLSYREEVFLRLSKSEGLMEI[LYB]LMEDLM[dV]FSRTG-NH2; reading uncertain) [Peptide 2S]” was tested, and the “luminescence (intracellular calcium increase)” value ([2]; final concentration 10 μmol/l) was “not detected” and the “luminescence (intracellular calcium increase)” value [5] was “not detected”.

“H-Leu-Ser-Pro-His-Thr-Lys-Leu-Ser-Tyr-Gly-Glu-Gly-Val-Phe-Leu-Arg-Leu-Ser-Lys-Ser-Glu-Gly-Leu-Met-Glu-Ile-Lys-Leu-Met-Glu-Asp-Leu-Met-Val-Phe-Pro-Lys-Thr-Gly-NH2 (H-LSPHTKLSYGEGVFLRLSKSEGLMEIKLMEDLMVFPKTG-NH2) [Peptide 1S]” was tested, and the “luminescence (intracellular calcium increase)” value ([2]; final concentration 10 μmol/l) was “not detected” and the “luminescence (intracellular calcium increase)” value [5] was “not detected”.

For “H-Met-Leu-Glu-Lys-Leu-Gly-Val-Pro-Lys-Thr-His-Leu-Glu-Leu-Lys-Arg-Leu-Ile-Arg-Glu-Val-Ser-Ser-Gly-Ser-Glu-Glu-Thr-Phe-Ser-Tyr-Ser-Asp-Phe-Leu-Arg-Met-Met-Leu-NH2 (H-MLEKLGVPKTHLELKRLIREVSSGSEETFSYSDFLRMML-NH2) [Peptide 2]”, the “final concentration” value [2, 7] was 0.1 µmol/L, the “luminescence (intracellular calcium increase)” value ([2]; final concentration 10 μmol/l) was “Strong luminescence” and the “luminescence (intracellular calcium increase)” value [5] was “Strong luminescence”.

“H-Met-Leu-Glu-Lys-Leu-Gly-Val-Pro-Lys-Thr-His-Leu-Glu-Leu-Lys-Lys-Leu-Ile-Gly-Glu-Val-Ser-Ser-Gly-Ser-Gly-Glu-Thr-Phe-Ser-Tyr-Pro-Asp-Phe-Leu-Arg-Met-Met-Leu-NH2 (H-MLEKLGVPKTHLELKKLIGEVSSGSGETFSYPDFLRMML-NH2) [Peptide 1]” was tested, and the “concentration at which luminescence accompanied by the increased intracellular calcium was observed” value [2, 7] was 10 µmol/L, the “luminescence (intracellular calcium increase)” value ([2]; final concentration 10 μmol/l) was “Strong luminescence” and the “luminescence (intracellular calcium increase)” value [5] was “Strong luminescence”. For the same molecule, the “luminescence (intracellular calcium increase)” value ([6]; final concentration 6 μmol/l) was “Strong luminescence”.

“H-Met-Met-Glu-Lys-Leu-Gly-Val-Pro-Lys-Thr-His-Leu-Glu-Met-Lys-Lys-Met-Ile-Ser-Glu-Val-Thr-Gly-Gly-Val-Ser-Asp-Thr-Ile-Ser-Tyr-Arg-Asp-Phe-Val-Asn-Met-Met-Leu-NH2 (H-MMEKLGVPKTHLEMKKMISEVTGGVSDTISYRDFVNMML-NH2) [Peptide 3]” was tested, and the “final concentration” value [2, 7] was 1 µmol/L, the “luminescence (intracellular calcium increase)” value ([2]; final concentration 10 μmol/l) was “Strong luminescence” and the “luminescence (intracellular calcium increase)” value [5] was “Strong luminescence”. For the same molecule, the “luminescence (intracellular calcium increase)” value ([6]; final concentration 8 μmol/l) was “Strong luminescence”.

In the case of “H-Val-Thr-Pro-His-Thr-Lys-Leu-Val-Tyr-Ser-Glu-Ser-Val-Ile-Met-Asn-Met-Ser-Lys-Gly-Glu-Gly-Leu-Met-Glu-Ile-Lys-Leu-Met-Asp-Asp-Met-Met-Thr-Phe-Arg-Lys-val-Gly-NH2 (H-VTPHTKLVYSESVIMNMSKGEGLMEIKLMDDMMTFRK[dV]G-NH2; SMILES CC[C@H](C)[C@H](NC(=O)[C@H](CCC(=O)O)NC(=O)[C@H](CCSC)NC(=O)[C@H](CC(C)C)NC(=O)CNC(=O)[C@H](CCC(=O)O)NC(=O)CNC(=O)[C@H](CCCCN)NC(=O)[C@H](CO)NC(=O)[C@H](CCSC)NC(=O)[C@H](CC(N)=O)NC(=O)[C@H](CCSC)NC(=O)[C@@H](NC(=O)[C@@H](NC(=O)[C@H](CO)NC(=O)[C@H](CCC(=O)O)NC(=O)[C@H](CO)NC(=O)[C@H](Cc1ccc(O)cc1)NC(=O)[C@@H](NC(=O)[C@H](CC(C)C)NC(=O)[C@H](CCCCN)NC(=O)[C@@H](NC(=O)[C@H](Cc1c[nH]cn1)NC(=O)[C@@H]1CCCN1C(=O)[C@@H](NC(=O)[C@@H](N)C(C)C)[C@@H](C)O)[C@@H](C)O)C(C)C)C(C)C)[C@@H](C)CC)C(=O)N[C@@H](CCCCN)C(=O)N[C@@H](CC(C)C)C(=O)N[C@@H](CCSC)C(=O)N[C@@H](CC(=O)O)C(=O)N[C@@H](CC(=O)O)C(=O)N[C@@H](CCSC)C(=O)N[C@@H](CCSC)C(=O)N[C@H](C(=O)N[C@@H](Cc1ccccc1)C(=O)N[C@@H](CCCNC(=N)N)C(=O)N[C@@H](CCCCN)C(=O)N[C@@H](C(=O)NCC(N)=O)C(C)C)[C@@H](C)O) [Peptide 3S]”, the “luminescence (intracellular calcium increase)” value ([2]; final concentration 10 μmol/l) is reported as “not detected” and the “luminescence (intracellular calcium increase)” value [5] is reported as “not detected”.

Triton X-100 was tested, and the luminescence ([1]; final concentration 2%) was “luminescence was observed”.

B1: AIF-1: precursor protein comprising the amino acid sequence represented by SEQ ID NO:1; purified after FXa cleavage of MBP fusion (protein, listed as Homo sapiens)
chain: MSQTRDLQGGKAFGLLKAQQEERLDEINKQFLDDPKYSSDEDLPSKLEGFKEKYMEFDLNGNGDIDIMSLKRMLEKLGVPKTHLELKKLIGEVSSGSGETFSYPDFLRMMLGKRSAILKMILMYEEKAREKEKPTGPPAKKAISELP
For B1, the “physiological activity (the activity found in Peptide 1 or Peptide 3)” value [2] was “not observed”.

B2: AIF-2: precursor protein comprising the amino acid sequence represented by SEQ ID NO:5; purified after FXa cleavage of MBP fusion (protein, listed as Homo sapiens)
chain: MSGELSNRFQGGKAFGLLKARQERRLAEINRELLCDQKYSDEENLPEKLTAFKEKYMEFDLNNEGEIDLMSLKRMMEKLGVPKTHLEMKKMISEVTGGVSDTISYRDFVNMMLGKRSAVLKLVMMFEGKANESSPKPVGPPPERDIASLP
For B2, the “physiological activity (the activity found in Peptide 1 or Peptide 3)” value [2] was “not observed”.
